The record followed here is patent EP2140864A2 (H. Lundbeck A/S, priority 2001, dated 2002).

The first experiment addresses T1, human GAL3 receptor (Homo sapiens, UniProt O60755).
T1 construct: expressed in transfected cells
T1 sequence (O60755 1-368): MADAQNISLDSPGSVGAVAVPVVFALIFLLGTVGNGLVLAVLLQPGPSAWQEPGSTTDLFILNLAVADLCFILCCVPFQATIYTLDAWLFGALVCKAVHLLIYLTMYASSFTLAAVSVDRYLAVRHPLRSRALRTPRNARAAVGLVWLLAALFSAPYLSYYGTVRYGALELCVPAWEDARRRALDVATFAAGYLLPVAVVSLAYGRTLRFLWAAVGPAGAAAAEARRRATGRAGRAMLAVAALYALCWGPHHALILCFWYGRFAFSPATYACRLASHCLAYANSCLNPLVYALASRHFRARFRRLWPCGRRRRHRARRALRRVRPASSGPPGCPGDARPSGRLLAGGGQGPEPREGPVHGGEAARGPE
Kind of experiment: Radioligand binding at cloned human GAL3 receptor. The note with it: indolones, cloned human receptor; read-out: Ki GalR3. The method, then: The present invention provides for a method of determining the binding affinity of a GAL3 antagonist, wherein the GAL3 antagonist is dissolved in a "suitable solvent". A "suitable solvent" means one which permits the measurement of binding affinity of the GAL3 antagonist to the human GAL3 receptor at concentrations less than 1 µM, preferably less than 100 nM. Examples of solvents include, but are not limited to, DMSO, ethanol, N,N-dimethylacetamide, or water. For indolones, the preferred solvent is 3% DMSO (final concentration in the assay). For pyrimidines, the preferred solvent is 1% ethanol/0.09% polypuronic acid F-127 (final concentration in the assay). For any other type of compounds, the preferred solvent is the solvent which permits the measurement of binding affinity of a GAL3 antagonist at the lowest concentration. Once a suitable solvent is ascertained for the binding assay of the human GAL3 receptor, the same solvent is used in assays to determine the binding affinity at the GAL1 receptor, the serotonin transporter, the norepinephrine transporter, and the dopamine transporter. A solvent of 0.4% DMSO is used in the central monoamine oxidase enzyme assay.
The binding properties of the pyrimidines of the present invention were evaluated at the cloned human galanin receptors, GAL1, GAL2, and GAL3, using protocols described herein.
The binding properties of the indolones of the present invention were evaluated at the cloned human galanin receptors, GAL1, GAL2, and GAL3, using protocols described herein.
LM(tk-) cells were stably transfected with the human GAL1 or GAL3 receptor. CHO cells were stably transfected with the human GAL2 receptor.
cDNAs for the human and rat GAL1, and human and rat GAL3 receptors were transfected with a G-418 resistant gene into the mouse fibroblast LM(tk-) cell line by a calcium phosphate transfection method (Cullen, 1987). Stably transfected cells were selected with G-418. Human and rat GAL2 receptors were similarly transfected into CHO cells.
Membranes were harvested from stably transfected LM(tk-) cells. Adherent cells were washed twice in ice-cold phosphate buffered saline (138 mM NaCl, 8.1 mM Na2HPO4, 2.5 mM KCl, 1.2 mM KH2PO4, 0.9 mM CaCl2, 0.5 mM MgCl2, pH 7.4) and lysed by sonication in ice-cold sonication buffer (20 mM Tris-HCl, 5 mM EDTA, pH 7.7). Large particles and debris were cleared by low speed centrifugation (200 x g, 5 min, 4°C). Membranes were collected from the supernatant fraction by centrifugation (32,000 x g, 18 min, 4°C), washed with ice-cold hypotonic buffer, and collected again by centrifugation (32,000 x g, 18 min, 4°C). The final membrane pellet was resuspended by sonication into a small volume of ice-cold binding buffer (-1 ml for every 5 plates: 10 mM NaCl, 20 mM HEPES, 0.22 mM KH2PO4, 1.26 mM CaCl2, 0.81 mM MgSO4, pH 7.4). Protein concentration was measured by the Bradford method (Bradford, 1976) using Bio-Rad Reagent, with bovine serum albumin as a standard. Membranes were held on ice for up to one hour and used fresh, or flash frozen and stored in liquid nitrogen. Membranes were prepared similarly from CHO cells.
Galanin Recentors: Binding assays were performed according to the following published methods: human GAL3 (PCT International Publication No. WO 98/15570), human GAL1 (PCT International Publication No. WO 95/2260), human GAL2 (PCT International Publication No. WO 97/26853).
Binding data were analyzed using nonlinear regression and statistical techniques available in the GraphPAD Prism package (San Diego, CA). Enzymatic assay data were derived from a standard curve of reference compound data.
Regarding `O=C1C(=Nc2cccc(C(F)(F)F)c2)c2ccccc2N1Cc1ccc(Cl)s1` (mixture of isomers) [Example 108, 1-[(5-CHLORO-2-THIENYL)METHYL]-3-{[3-(TRIFLUOROMETHYL)PHENYL]IMINO}-1,3-DIHYDRO-2H-INDOL-2-ONE], the inhibition constant Ki is 84 nM.

`O=C1C(=Nc2cccc(C(F)(F)F)c2)c2ccccc2N1c1ccsc1` (mixture of isomers) [Example 109, 1-(3-THIENYL)-3-{[3-(TRIFLUOROMETHYL)PHENYL]IMINO}-1,3-DIHYDRO-2H-INDOL-2-ONE]: the inhibitory constant (Ki) was 103 nM.

For `O=C1C(=Nc2ccc3[nH]ccc3c2)c2ccccc2N1c1ccccc1` (mixture of isomers) [Example 112, 3-(1H-INDOL-5-YLIMINO)-1-PHENYL-1,3-DIHYDRO-2H-INDOL-2-ONE], the Ki was 2320 nM.

Regarding `O=C1C(=Nc2ccc(Cl)nc2)c2ccccc2N1c1ccccc1` (mixture of isomers) [Example 113], the Ki came to 136 nM.

For the compound `Cc1nc2cc(N=C3C(=O)N(c4ccccc4)c4ccccc43)ccc2s1` (mixture of isomers) [Example 114, 3-[(2-METHYL-1,3-BENZOTHIAZOL-5-YL)IMINO]-1-PHENYL-1,3-DIHYDRO-2H-INDOL-2-ONE], the inhibition constant (Ki) turned out to be 569 nM.

As to `O=C1C(=Nc2cccc(C(F)(F)F)c2)c2ccccc2N1Cc1csc2ccc(Cl)cc12` [Example 111, 1-[(5-CHLORO-1-BENZOTHIEN-3-YL)METHYL]-3-{[3-(TRIFLUOROMETHYL)PHENYL]IMINO}-1,3-DIHYDRO-2H-INDOL-2-ONE], the Ki is 1180 nM.

Staying with this experiment, now noted: pyrimidines, cloned human receptor; read-out: Ki GalR3.
Consider `Cc1ccc(Nc2cc(N3CCCCC3)nc(Nc3ccccc3)n2)cc1` [Example 3], for which the Ki came to 163 nM.

Consider `Cc1ccc(Nc2cc(N3CCCCC3)nc(Nc3ccc(C)cc3)n2)cc1` [Example 4], for which the Ki worked out at 627 nM.

As for `Cc1ccc(Nc2cc(N3CCCCC3)nc(N(C)CCc3c[nH]c4ccccc34)n2)cc1Cl` [Example 16], the Ki turned out to be 33 nM.

In the case of `Cc1ccc(Nc2cc(N3CCCCC3)nc(N3CCN(Cc4ccccc4)CC3)n2)cc1` [Example 23], the Ki was 60 nM.

Take `Cc1ccc(Nc2cc(N3CCCCC3)nc(N3CCN(c4cccc(C(F)(F)F)n4)CC3)n2)cc1` [Example 33]: the inhibition constant Ki was determined as 181 nM.

In the case of `FC(F)(F)c1cccnc1N1CCN(c2nc(NC3CCCCC3)cc(N3CCCCC3)n2)CC1` [Example 35], the Ki was found to be 111 nM.

With `Cc1ccc(Nc2cc(N3CCCCC3)nc(N3CCc4ccccc43)n2)cc1` [Example 39], the inhibition constant (Ki) turned out to be 128 nM.

With `Cc1ccc(Nc2cc(N3CCCCC3)nc(N3Cc4cccc5cccc(c45)C3)n2)cc1` [Example 43], the Ki is 107 nM.

For `COCCN(CCOC)c1nc(Nc2ccc(C)cc2)cc(N2CCCCC2)n1` [Example 45], the inhibition constant (Ki) was found to be 505 nM.

Regarding `CN(C)c1cc(Nc2ccccc2)nc(Nc2ccccc2)n1` [Example 50], the inhibition constant Ki worked out at 699 nM.

With `Cc1ccccc1Nc1cc(N(C)C)nc(Nc2ccccc2)n1` [Example 51], the Ki stood at 987 nM.

In the case of `Cc1cccc(Nc2cc(N(C)C)nc(Nc3ccccc3)n2)c1` [Example 52], the inhibitory constant (Ki) came out at 570 nM.

For `Cc1ccc(Nc2nc(Nc3cccc(C)c3)cc(N(C)C)n2)cc1` [Example 53], the inhibitory constant (Ki) was determined as 980 nM.

In the case of `Cc1ccc(Nc2cc(N(C)C)nc(Nc3ccccc3)n2)cc1` [Example 54], the inhibition constant (Ki) was 132 nM.

Regarding `Cc1ccc(Nc2cc(N(C)C)nc(Nc3ccc(Cl)c(Cl)c3)n2)cc1` [Example 55], the Ki turned out to be 48 nM.

Turning to `Cc1ccc(Nc2cc(N(C)C)nc(Nc3ccc(C)cc3)n2)cc1` [Example 56], the Ki came to 794 nM.

Consider `CN(C)c1cc(Nc2cccc(F)c2)nc(Nc2ccccc2)n1` [Example 57], for which the inhibitory constant (Ki) is 360 nM.

`CN(C)c1cc(Nc2ccc(Br)cc2)nc(Nc2ccccc2)n1` [Example 59]: the Ki stood at 566 nM.

For `CN(C)c1cc(Nc2ccc(C(C)(C)C)cc2)nc(Nc2ccccc2)n1` [Example 63], the Ki was 731 nM.

For the compound `CN(C)c1cc(Nc2ccc(Oc3ccccc3)cc2)nc(Nc2ccccc2)n1` [Example 64], the inhibition constant (Ki) came out at 572 nM.

For the compound `CN(C)c1cc(Nc2ccc3ccccc3c2)nc(Nc2ccccc2)n1` [Example 65], the Ki was determined as 329 nM.

Take `CN(C)c1cc(NC2CCCCC2)nc(Nc2ccccc2)n1` [Example 66]: the Ki worked out at 699 nM.

For the compound `Cc1ccc(Nc2cc(N(C)C)nc(N3CCN(S(=O)(=O)c4ccc(C)cc4)CC3)n2)cc1` [Example 84], the Ki turned out to be 261 nM.

Take `Cc1ccc(Nc2cc(N(C)C)nc(N3CCN(c4cccc(C)c4)CC3)n2)cc1` [Example 86]: the inhibitory constant (Ki) worked out at 227 nM.

With `CN(C)c1cc(Nc2cccc(OCc3ccccc3)c2)nc(N2CCN(c3ccccn3)CC2)n1` [Example 115], the Ki was determined as 13 nM.

With `Cc1ccc(Nc2cc(N(C)C)nc(N3CCN(c4ccc(O)cc4)CC3)n2)cc1` [Example 116], the Ki was 479 nM.

As to `CN(C)c1cc(Nc2ccc(OCc3ccccc3)cc2)nc(N2CCN(c3ccccn3)CC2)n1` [Example 117], the Ki came to 61 nM.

As for `CN(C)c1cc(Nc2ccc3c(c2)OCO3)nc(N2CCN(c3ccccn3)CC2)n1` [Example 118], the inhibition constant (Ki) turned out to be 508 nM.

`CN(C)c1cc(Nc2ccc3c(c2)OCCO3)nc(N2CCN(c3ccccn3)CC2)n1` [Example 119]: the Ki came to 540 nM.

Regarding `CN(C)c1cc(Nc2cncc3ccccc23)nc(N2CCN(c3ccccn3)CC2)n1` [Example 120], the inhibition constant (Ki) is 664 nM.

Consider `CN(C)c1cc(Nc2ccc(C3CCCCC3)cc2)nc(N2CCN(c3ccccn3)CC2)n1` [Example 121], for which the inhibition constant Ki was found to be 21 nM.

On to `CN(C)c1cc(Nc2cccc3c2CCCC3)nc(N2CCN(c3ccccn3)CC2)n1` [Example 122], for which the inhibitory constant (Ki) stood at 65 nM.

Turning to `CN(C)c1cc(Nc2ccc3c(c2)CCC3)nc(N2CCN(c3ccccn3)CC2)n1` [Example 123], the Ki was 61 nM.

For the compound `CN(C)c1cc(Nc2ccc(Cl)c(Cl)c2)nc(N2CCN(c3ccccn3)CC2)n1` [Example 124], the Ki is 36 nM.

On to `CN(C)c1cc(Nc2cccc(C(F)(F)F)c2)nc(N2CCN(c3ccccn3)CC2)n1` [Example 125], for which the inhibition constant Ki turned out to be 75 nM.

Consider `CN(C)c1cccc(Nc2cc(N(C)C)nc(N3CCN(Cc4ccccc4)CC3)n2)c1` [Example 126], for which the Ki turned out to be 99 nM.

For the compound `Cc1nc2cc(Nc3cc(N(C)C)nc(N4CCN(Cc5ccccc5)CC4)n3)ccc2s1` [Example 127], the Ki is 255 nM.

In the case of `CN(C)c1cc(NC2CCCCCC2)nc(N2CCN(Cc3ccccc3)CC2)n1` [Example 128], the Ki is 249 nM.

As to `CN(C)c1cc(Nc2ccc(C#N)c(Cl)c2)nc(N2CCN(Cc3ccccc3)CC2)n1` [Example 129], the Ki is 405 nM.

On to `CN(C)c1cc(NC2C3(C)CCC(C3)C2(C)C)nc(N2CCN(Cc3ccccc3)CC2)n1` (centres unmarked) [Example 130], for which the inhibitory constant (Ki) was 100 nM.

Regarding `Cc1ccc(Nc2cc(N(C)C)nc(N3CCN(c4cccc(OCc5ccccc5)c4)CC3)n2)cc1` [Example 131], the inhibition constant Ki was 20 nM.

Take `CN(C)c1cc(Nc2cnc3ccccc3c2)nc(N2CCN(c3ccccn3)CC2)n1` [Example 132]: the Ki stood at 618 nM.

`CN(C)c1cc(Nc2ccc(Br)c(C(F)(F)F)c2)nc(N2CCN(c3ccccn3)CC2)n1` [Example 133]: the inhibition constant Ki is 60 nM.

On to `CN(C)c1cc(Nc2ccc(SC(F)(F)F)c(Cl)c2)nc(N2CCN(c3ccccn3)CC2)n1` [Example 134], for which the inhibition constant (Ki) stood at 25 nM.
